According to patent US8216786B2, “Genetic polymorphisms associated with cardiovascular diseases, methods of detection and uses thereof” (Celera Corporation, priority 2008, dated 2012):

System: individuals who have previously had an MI
Experiment: CARE trial: effect of pravastatin vs placebo on coronary events (endpt1, rmi) by SNP genotype subgroup
Type: in vivo, human
Settings: for HR: pravastatin vs placebo
Description: In Tables 21-22, the column labeled “Endpoint” indicates whether the endpoint that was analyzed was the primary endpoint of the CARE study (a composite endpoint of fatal coronary event or nonfatal MI, and identified as “endpt1”) or a composite endpoint of confirmed fatal or nonfatal MI (identified as “rmi”). […] As used herein, the term “benefit” (with respect to a preventive or therapeutic drug treatment) is defined as achieving a reduced risk for a disease that the drug is intended to treat or prevent (e.g., CVD such as CHD, particularly MI, or hypertension) by administering the drug treatment, compared with the risk for the disease in the absence of receiving the drug treatment (or receiving a placebo in lieu of the drug treatment) for the same genotype. […] J. […] (1996) New England Journal of Medicine 335: 1001-1009. […] A well-documented MI was one of the enrollment criteria for entry into the CARE study. Patients were enrolled in the CARE trial from 80 participating study centers. […] For the study of CARE described in this Example and shown in Tables 21-22, two endpoints were investigated: the primary endpoint of CARE (a composite endpoint of fatal coronary event or nonfatal MI, and identified as “endpt1” in the Endpoint column of Tables 21-22) and a composite endpoint of confirmed fatal or nonfatal MI (identified as “rmi” in the Endpoint column of Tables 21-22). […] HR stands for Hazard Ratio, which is a concept similar to Odds Ratio (OR). The HR in event-free survival analysis is the effect of an explanatory variable on the hazard or risk of an event. […] In Table 21, p-interaction values were calculated. An interaction (or effect modification) is formed when a third variable modifies the relation between an exposure and outcome. […] Genotype and drug interaction is present when the effect of statins (incidence rate of disease in statin-treated group, as compared to placebo) differs in patients with different genotypes.

[1] = endpt1, hCV8851065 rs9277343 HLA-DPA1, GC + CC
[2] = endpt1, hCV8851065 rs9277343 HLA-DPA1, GG
[3] = endpt1, hCV8851085 rs1042153 HLA-DPB1, AG + AA
[4] = endpt1, hCV8851085 rs1042153 HLA-DPB1, GG
[5] = endpt1, hCV8851095 rs1042335 HLA-DPB1, TC + CC
[6] = endpt1, hCV8851095 rs1042335 HLA-DPB1, TT
[7] = endpt1, hCV8895373 rs1503185 PTPRJ, AG + AA
[8] = endpt1, hCV8895373 rs1503185 PTPRJ, GG
[9] = endpt1, hCV8901525 rs861539 KLC1, AG + AA
[10] = endpt1, hCV8901525 rs861539 KLC1, GG
[11] = endpt1, hCV8921288 rs1060621 GAPDH, AA
[12] = endpt1, hCV8921288 rs1060621 GAPDH, CA + CC
[13] = endpt1, hCV9055799 rs3734311 IMPG1, CC
[14] = endpt1, hCV9055799 rs3734311 IMPG1, CG + GG
[15] = endpt1, hCV9077561 rs1801274 FCGR2A, AA
[16] = endpt1, hCV9077561 rs1801274 FCGR2A, GA + GG
[17] = endpt1, hCV9506149 rs1250259 FN1, AA
[18] = endpt1, hCV9506149 rs1250259 FN1, TA + TT
[19] = endpt1, hCV9596963 rs6115 SERPINA5, GA + AA
[20] = endpt1, hCV9596963 rs6115 SERPINA5, GG
[21] = endpt1, hCV9604851 rs1805002 CCKBR, AG + AA
[22] = endpt1, hCV9604851 rs1805002 CCKBR, GG
[23] = endpt1, hCV25630686 PSMB9, TC + TT
[24] = endpt1, hCV25631989 rs1135983 ATF6, CC
[25] = endpt1, hCV25631989 rs1135983 ATF6, TC + TT
[26] = endpt1, hCV25637309 rs3204849 CCRL2, AA
[27] = endpt1, hCV25637309 rs3204849 CCRL2, AT + TT
[28] = endpt1, hCV25644901 ITGA9, GA + GG
[29] = endpt1, hCV25651076 rs5743291 NOD2, AG + AA
[30] = endpt1, hCV25651076 rs5743291 NOD2, GG
[31] = endpt1, hCV25651174 rs9277356 HLA-DPB1, GA + GG
[32] = endpt1, hCV342590 rs6030 F5, Strata CC
[33] = endpt1, hCV342590 rs6030 F5, Strata CT
[34] = endpt1, hCV342590 rs6030 F5, Strata TT
[35] = endpt1, hCV435368 rs2812 PECAM1, Strata CC
[36] = endpt1, hCV435368 rs2812 PECAM1, Strata TC
[37] = endpt1, hCV435368 rs2812 PECAM1, Strata TT
[38] = endpt1, hCV3135085 rs10795446 CUBN, Strata GT
[39] = endpt1, hCV3135085 rs10795446 CUBN, Strata TT
[40] = endpt1, hCV3275199 rs2069885 IL9, Strata AA
[41] = endpt1, hCV3275199 rs2069885 IL9, Strata AG
[42] = endpt1, hCV3275199 rs2069885 IL9, Strata GG

CC[C@H](C)C(=O)O[C@H]1C[C@H](O)C=C2C=C[C@H](C)[C@H](CC[C@@H](O)C[C@@H](O)CC(=O)O)[C@H]21 [pravastatin]
NONEVENT (Pravastatin arm) (endpt1, hCV8851047 rs45614833 HLA-DPA1, CT + TT): 1229
EVENTS (Pravastatin arm) [1]: 120
NONEVENT (Pravastatin arm) [1]: 1198
EVENTS (Pravastatin arm) [2]: 13
NONEVENT (Pravastatin arm) [2]: 90
EVENTS (Pravastatin arm) [3]: 58
NONEVENT (Pravastatin arm) [3]: 491
EVENTS (Pravastatin arm) [4]: 74
NONEVENT (Pravastatin arm) [4]: 798
EVENTS (Pravastatin arm) [5]: 126
NONEVENT (Pravastatin arm) [5]: 1216
EVENTS (Pravastatin arm) [6]: 7
NONEVENT (Pravastatin arm) [6]: 40
EVENTS (Pravastatin arm) [7]: 53
NONEVENT (Pravastatin arm) [7]: 409
EVENTS (Pravastatin arm) [8]: 80
NONEVENT (Pravastatin arm) [8]: 882
EVENTS (Pravastatin arm) [9]: 88
NONEVENT (Pravastatin arm) [9]: 759
EVENTS (Pravastatin arm) [10]: 45
NONEVENT (Pravastatin arm) [10]: 504
EVENTS (Pravastatin arm) [11]: 97
NONEVENT (Pravastatin arm) [11]: 815
EVENTS (Pravastatin arm) [12]: 36
NONEVENT (Pravastatin arm) [12]: 440
EVENTS (Pravastatin arm) [13]: 15
NONEVENT (Pravastatin arm) [13]: 247
EVENTS (Pravastatin arm) [14]: 117
NONEVENT (Pravastatin arm) [14]: 1040
EVENTS (Pravastatin arm) [15]: 36
NONEVENT (Pravastatin arm) [15]: 300
EVENTS (Pravastatin arm) [16]: 96
NONEVENT (Pravastatin arm) [16]: 985
EVENTS (Pravastatin arm) (endpt1, hCV9494470, GG): 100
NONEVENT (Pravastatin arm) (endpt1, hCV9494470, GG): 884
EVENTS (Pravastatin arm) (endpt1, hCV9494470, TG + TT): 33
NONEVENT (Pravastatin arm) (endpt1, hCV9494470, TG + TT): 407
EVENTS (Pravastatin arm) [17]: 64
NONEVENT (Pravastatin arm) [17]: 678
EVENTS (Pravastatin arm) [18]: 69
NONEVENT (Pravastatin arm) [18]: 611
EVENTS (Pravastatin arm) [19]: 106
NONEVENT (Pravastatin arm) [19]: 1147
EVENTS (Pravastatin arm) [20]: 26
NONEVENT (Pravastatin arm) [20]: 136
EVENTS (Pravastatin arm) [21]: 19
NONEVENT (Pravastatin arm) [21]: 113
EVENTS (Pravastatin arm) [22]: 114
NONEVENT (Pravastatin arm) [22]: 1178
EVENTS (Pravastatin arm) (endpt1, hCV25630686 PSMB9, CC): 128
NONEVENT (Pravastatin arm) (endpt1, hCV25630686 PSMB9, CC): 1206
EVENTS (Pravastatin arm) [23]: 5
NONEVENT (Pravastatin arm) [23]: 85
EVENTS (Pravastatin arm) [24]: 107
NONEVENT (Pravastatin arm) [24]: 1044
EVENTS (Pravastatin arm) [25]: 26
NONEVENT (Pravastatin arm) [25]: 198
EVENTS (Pravastatin arm) [26]: 24
NONEVENT (Pravastatin arm) [26]: 184
EVENTS (Pravastatin arm) [27]: 109
NONEVENT (Pravastatin arm) [27]: 1107
EVENTS (Pravastatin arm) (endpt1, hCV25640504, TC + CC): 113
NONEVENT (Pravastatin arm) (endpt1, hCV25640504, TC + CC): 1035
EVENTS (Pravastatin arm) (endpt1, hCV25640504, TT): 12
NONEVENT (Pravastatin arm) (endpt1, hCV25640504, TT): 194
EVENTS (Pravastatin arm) (endpt1, hCV25644901 ITGA9, AA): 124
NONEVENT (Pravastatin arm) (endpt1, hCV25644901 ITGA9, AA): 1171
EVENTS (Pravastatin arm) [28]: 9
NONEVENT (Pravastatin arm) [28]: 120
EVENTS (Pravastatin arm) [29]: 28
NONEVENT (Pravastatin arm) [29]: 217
EVENTS (Pravastatin arm) [30]: 104
NONEVENT (Pravastatin arm) [30]: 1068
EVENTS (Pravastatin arm) [31]: 76
NONEVENT (Pravastatin arm) [31]: 641
EVENTS (Pravastatin arm) [32]: 15
NONEVENT (Pravastatin arm) [32]: 123
EVENTS (Pravastatin arm) [33]: 44
NONEVENT (Pravastatin arm) [33]: 553
EVENTS (Pravastatin arm) [34]: 74
NONEVENT (Pravastatin arm) [34]: 613
EVENTS (Pravastatin arm) [35]: 37
NONEVENT (Pravastatin arm) [35]: 369
EVENTS (Pravastatin arm) [36]: 56
NONEVENT (Pravastatin arm) [36]: 649
EVENTS (Pravastatin arm) [37]: 40
NONEVENT (Pravastatin arm) [37]: 272
EVENTS (Pravastatin arm) [38]: 64
NONEVENT (Pravastatin arm) [38]: 554
EVENTS (Pravastatin arm) [39]: 57
NONEVENT (Pravastatin arm) [39]: 575
EVENTS (Pravastatin arm) [40]: 5
NONEVENT (Pravastatin arm) [40]: 28
EVENTS (Pravastatin arm) [41]: 18
NONEVENT (Pravastatin arm) [41]: 310
EVENTS (Pravastatin arm) [42]: 109
NONEVENT (Pravastatin arm) [42]: 947
HR (hCV16189421, first genotype stratum listed (strata and endpoint not given)): 1
HR (hCV16189421, second genotype stratum listed (strata and endpoint not given)): 0.67
HR (hCV25630686, first genotype stratum listed (strata and endpoint not given)): 0.35
HR (hCV25630686, second genotype stratum listed (strata and endpoint not given)): 0.81
HR (hCV25631989, first genotype stratum listed (strata and endpoint not given)): 1.83
HR (hCV25631989, second genotype stratum listed (strata and endpoint not given)): 0.72
HR (hCV25644901, first genotype stratum listed (strata and endpoint not given)): 0.32
HR (hCV25644901, second genotype stratum listed (strata and endpoint not given)): 0.86
